The text below walks through data of patent US7960377B2 (priority 2008, dated 2011).

Read-outs that look alike come from different tables or passages of the source. Some results are limits rather than exact numbers.

Experiment in all cases: cell-based
One experiment deals with human CB1 receptor (Homo sapiens, UniProt P21554).
The target in a further experiment is human CB2 receptor (Homo sapiens, UniProt P34972). Format: cell-based.
In a further experiment the target is T1, rat CB2 receptor (Rattus norvegicus, UniProt Q9QZN9).
T1 sequence (Q9QZN9 1-360): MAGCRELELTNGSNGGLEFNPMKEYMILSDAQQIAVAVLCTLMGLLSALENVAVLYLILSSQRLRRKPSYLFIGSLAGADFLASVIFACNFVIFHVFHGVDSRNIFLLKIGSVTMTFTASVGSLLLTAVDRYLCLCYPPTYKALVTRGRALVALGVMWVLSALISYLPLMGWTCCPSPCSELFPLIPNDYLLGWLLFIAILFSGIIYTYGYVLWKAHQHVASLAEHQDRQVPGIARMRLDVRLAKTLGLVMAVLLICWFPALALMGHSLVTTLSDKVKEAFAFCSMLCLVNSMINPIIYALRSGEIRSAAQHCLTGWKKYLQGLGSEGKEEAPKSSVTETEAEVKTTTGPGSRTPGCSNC
The format is cell-based.

Setting [1] is: change in intracellular cAMP, CHO-K1 hCB2 cells, class AR, read-out: EC50 values for human CB2 receptor.
The mark [2] stands for this setting: asterisk at the compound number.

Sequence of human CB2 receptor (P34972 whole entry): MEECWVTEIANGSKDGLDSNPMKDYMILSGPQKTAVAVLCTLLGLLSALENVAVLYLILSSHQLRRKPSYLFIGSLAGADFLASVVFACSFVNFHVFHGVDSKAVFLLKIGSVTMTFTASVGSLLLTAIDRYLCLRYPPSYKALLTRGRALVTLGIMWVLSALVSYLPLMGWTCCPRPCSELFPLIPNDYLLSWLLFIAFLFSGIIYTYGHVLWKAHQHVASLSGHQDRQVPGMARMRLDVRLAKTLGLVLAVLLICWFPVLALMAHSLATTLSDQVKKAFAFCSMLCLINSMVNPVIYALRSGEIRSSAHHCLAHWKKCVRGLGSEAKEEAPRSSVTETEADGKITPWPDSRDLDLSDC
Sequence of human CB1 receptor (P21554 whole entry): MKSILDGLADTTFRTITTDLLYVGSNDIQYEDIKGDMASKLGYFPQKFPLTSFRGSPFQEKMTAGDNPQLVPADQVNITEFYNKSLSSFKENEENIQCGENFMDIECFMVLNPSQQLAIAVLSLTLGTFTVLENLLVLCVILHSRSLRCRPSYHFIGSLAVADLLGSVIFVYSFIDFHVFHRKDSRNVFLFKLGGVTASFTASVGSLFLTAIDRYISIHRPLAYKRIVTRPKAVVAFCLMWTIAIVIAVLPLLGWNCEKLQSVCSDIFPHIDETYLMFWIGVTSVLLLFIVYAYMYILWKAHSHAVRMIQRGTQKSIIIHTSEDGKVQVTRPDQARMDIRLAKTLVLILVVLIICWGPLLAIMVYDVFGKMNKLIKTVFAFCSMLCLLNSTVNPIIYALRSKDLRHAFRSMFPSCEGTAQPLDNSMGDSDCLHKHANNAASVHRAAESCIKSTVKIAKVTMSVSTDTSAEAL

In the case of `CCN(CC)C(=O)c1cnc2c(c1)N(S(=O)(=O)c1cccnc1)CCO2` [Example 18, N,N-diethyl-1-(pyridin-3-ylsulfonyl)-2,3-dihydro-1H-pyrido[2,3-b][1,4]oxazine-7-carboxamide], the concentration for a half-maximal effect (EC50) at human CB1 receptor and on human CB2 receptor (setting [1]) was over 30 µM each time.

As for `COCCCNC(=O)c1cnc2c(c1)N(S(=O)(=O)c1cccnc1)CCO2` [Example 19, N-(3-methoxypropyl)-1-(pyridin-3-ylsulfonyl)-2,3-dihydro-1H-pyrido[2,3-b][1,4]oxazine-7-carboxamide], the EC50 on human CB1 receptor and on human CB2 receptor (setting [1]) was over 30 µM throughout.

On to `Cn1cnc(S(=O)(=O)N2CCOc3ncc(C(=O)NC(C)(C)C)cc32)c1` [Example 30, N-tert-butyl-1-(1-methyl-1H-imidazol-4-ylsulfonyl)-2,3-dihydro-1H-pyrido-[2,3-b][1,4]oxazine-7-carboxamide], for which the EC50 on human CB1 receptor and at human CB2 receptor (setting [1]) was over 30 µM each time.

On to `Cn1cnc(S(=O)(=O)N2CCOc3ncc(C(=O)NC4CCCC4)cc32)c1` [Example 31, N-cyclopentyl-1-(1-methyl-1H-imidazol-4-ylsulfonyl)-2,3-dihydro-1H-pyrido[2,3-b][1,4] oxazine-7-carboxamide], for which the concentration for a half-maximal effect (EC50) at human CB1 receptor and at human CB2 receptor (setting [1]) was over 30 µM throughout.

In the case of `CCN(CCN(C)C)C(=O)c1cnc2c(c1)N(S(=O)(=O)c1ccc(C(F)(F)F)cc1)CCO2` [Example 38, N-(2-(dimethylamino)-ethyl)-N-ethyl-1-(4-(trifluoromethyl)phenylsulf-onyl)-2,3-dihydro-1H-pyrido[2,3-b][1,4]oxazine-7-carboxamide], the EC50 on human CB1 receptor and on human CB2 receptor (setting [1]) was over 30 µM throughout.

Regarding `CC(C)(C)NC(=O)c1cnc2c(c1)N(S(=O)(=O)c1cc(Cl)cc(Cl)c1)CCO2` [Example 53, N-tert-butyl-1-(3,5-dichlorophenylsulfonyl)-2,3-dihydro-1H-pyrido[2,3-b][1,4]oxazine-7-carboxamide], the EC50 on human CB1 receptor and at human CB2 receptor was over 30 µM each time.

For the compound `CC(C)(C)NC(=O)c1cnc2c(c1)N(S(=O)(=O)Cc1ccc(C(F)(F)F)cc1)CCO2` [Example 63, N-tert-butyl-1-(4-(trifluoromethyl)benzylsulf-onyl)-2,3-dihydro-1H-pyrido[2,3-b][1,4]oxazine-7-carboxamide], the EC50 on human CB1 receptor and at human CB2 receptor (setting [1]) was over 30 µM each time.

As for `CCS(=O)(=O)N1CCOc2ncc(C(=O)NC(C)(C)C)cc21` [Example 80, N-tert-butyl-1-(ethylsulfonyl)-2,3-dihydro-1H-pyrido[2,3-b][1,4]oxazine-7-carboxamide], the EC50 on human CB1 receptor and at human CB2 receptor was over 30 µM throughout.

As to `Cc1cccc(CS(=O)(=O)N2CCOc3ncc(C(=O)NC(C)(C)C)cc32)c1` [Example 81, N-tert-butyl-1-(3-methylbenzylsulfonyl)-2,3-dihydro-1H-pyrido[2,3-b][1,4]oxazine-7-carboxamide], the EC50 at human CB1 receptor and on human CB2 receptor (setting [1]) was over 30 µM throughout.

Consider `CC(C)(C)NC(=O)c1cnc2c(c1)N(S(=O)(=O)c1ccccc1OC(F)(F)F)CCO2` [Example 84, N-tert-butyl-1-(2-(trifluoromethoxy)phenyl-sulfonyl)-2,3-dihydro-1H-pyrido[2,3-b][1,4]oxazine-7-carboxamide], for which the EC50 at human CB1 receptor and at human CB2 receptor (setting [1]) was over 30 µM each time.

Consider `CC(C)(C)NC(=O)c1cnc2c(c1)N(S(=O)(=O)N1CCC(F)CC1)CCO2` [Example 166, N-tert-butyl-1-(4-fluoropiperidin-1-ylsulfonyl)-2,3-dihydro-1H-pyrido[2,3-b][1,4]oxazine-7-carboxamide], for which the figures for the EC50 on rat CB2 receptor and at human CB1 receptor were at most 0.03 µM and over 30 µM, respectively.

Regarding `CC(C)(CO)CNC(=O)c1cnc2c(c1)N(S(=O)(=O)N1CCC(F)CC1)CCO2` [Example 169, 1-(4-fluoropiperidin-1-ylsulfonyl)-N-(3-hydroxy-2,2-dimethylpropyl)-2,3-dihydro-1H-pyrido[2,3-b][1,4]oxazine-7-carboxamide], the results for the EC50 on rat CB2 receptor and at human CB1 receptor were at most 0.03 µM and over 30 µM, respectively.

For `CC1CCN(S(=O)(=O)N2CCOc3ncc(C(=O)NC(C)(C)C)cc32)CC1` [Example 170, N-tert-butyl-1-(4-methylpiperidin-1-ylsulfonyl)-2,3-dihydro-1H-pyrido[2,3-b][1,4]oxazine-7-carboxamide], the values for the EC50 on rat CB2 receptor and at human CB1 receptor were at most 0.03 µM and over 30 µM, respectively.

For the compound `CCC(C)(C)NC(=O)c1cnc2c(c1)N(S(=O)(=O)N1CCC(C)CC1)CCO2` [Example 171, 1-(4-methylpiperidin-1-ylsulfonyl)-N-tert-pentyl-2,3-dihydro-1H-pyrido[2,3-b][1,4]oxazine-7-carboxamide], the results for the EC50 on rat CB2 receptor and on human CB1 receptor were at most 0.03 µM and over 30 µM, respectively.

Regarding `CC1CCN(S(=O)(=O)N2CCOc3ncc(C(=O)NC(C)(C)CO)cc32)CC1` [Example 172, N-(1-hydroxy-2-methylpropan-2-yl)-1-(4-methylpiperidin-1-ylsulfonyl)-2,3-dihydro-1H-pyrido[2,3-b][1,4]oxazine-7-carboxamide], the results for the EC50 on rat CB2 receptor and at human CB1 receptor were at most 0.03 µM and over 30 µM, respectively.

With `CC(C)(C)NC(=O)c1cnc2c(c1)N(S(=O)(=O)NCc1ccccc1)CCO2` [Example 178, 1-(N-benzylsulfamoyl)-N-tert-butyl-2,3-dihydro-1H-pyrido[2,3-b][1,4]oxazine-7-carboxamide], the EC50 (in general, the concentration needed to bring the measured effect to its halfway point) at rat CB2 receptor was at most 0.03 µM; on human CB1 receptor it was over 30 µM.

As for `CC(C)CNS(=O)(=O)N1CCOc2ncc(C(=O)NC(C)(C)C)cc21` [Example 180, N-tert-butyl-1-(N-isobutylsulfamoyl)-2,3-dihydro-1H-pyrido[2,3-b][1,4]oxazine-7-carboxamide], the EC50 is at most 0.03 µM at rat CB2 receptor and over 30 µM on human CB1 receptor.

With `CC(C)CNS(=O)(=O)N1CCOc2ncc(C(=O)NCC(C)(C)CO)cc21` [Example 182, N-(3-hydroxy-2,2-dimethylpropyl)-1-(N-isobutylsulfamoyl)-2,3-dihydro-1H-pyrido[2,3-b][1,4]oxazine-7-carboxamide], the figures for the EC50 on rat CB2 receptor and on human CB1 receptor were at most 0.03 µM and over 30 µM, respectively.

Compound `CC(C)(CO)NC(=O)c1cnc2c(c1)N(S(=O)(=O)N1CC(F)(F)C1)CCO2` [Example 195, 1-(3,3-difluoroazetidin-1-ylsulfonyl)-N-(1-hydroxy-2-methylpropan-2-yl)-2,3-dihydro-1H-pyrido[2,3-b][1,4]oxazine-7-carboxamide] had an EC50 at human CB2 receptor of over 30 µM.

On to `C[C@@H]1CCC[C@H](C)N1C(=O)c1cnc2c(c1)N(S(=O)(=O)c1ccc(C(F)(F)F)cc1)CCO2` [Example 197, (cis-2,6-dimethylpiperidin-1-yl)(1-(4-(trifluoromethyl)phenylsulf-onyl)-2,3-dihydro-1H-pyrido[2,3-b][1,4]oxazin-7-yl)methanone], for which the EC50 on rat CB2 receptor is at most 0.03 µM; at human CB1 receptor, over 30 µM.

In the case of `O=C(NC1(CO)CCC1)c1cnc2c(c1)N(S(=O)(=O)c1ccc(Cl)c(Cl)c1)CCO2` [Example 209, 1-(3,4-dichlorophenylsulfonyl)-N-(1-(hydroxymethyl)cyclobutyl)-2,3-dihydro-1H-pyrido[2,3-b][1,4]oxazine-7-carboxamide], the concentration for a half-maximal effect (EC50) on rat CB2 receptor was at most 0.03 µM; at human CB1 receptor it was over 30 µM.

As for `CCc1noc(-c2cnc3c(c2)N(S(=O)(=O)c2ccccc2)CCO3)n1` [Example 210, 7-(3-ethyl-1,2,4-oxadiazol-5-yl)-1-(phenylsulfonyl)-2,3-dihydro-1H-pyrido[2,3-b][1,4]oxazine], the values for the concentration giving a half-maximal response (EC50) on rat CB2 receptor and on human CB1 receptor were at most 0.03 µM and over 30 µM, respectively.

Take `O=S(=O)(c1ccccc1)N1CCOc2ncc(-c3nnc(-c4ccccc4)o3)cc21` [Example 211, 7-(5-phenyl-1,3,4-oxadiazol-2-yl)-1-(phenylsulfonyl)-2,3-dihydro-1H-pyrido[2,3-b][1,4]oxazine]: the “inverse agonist mark, rat CB2 receptor” value at rat CB2 receptor (setting [2]) was 181, 188, 189, 190, 195, 200, 201, 202, 204, 211*, 214*, 220, 221,. The compound further showed an EC50 at human CB1 receptor of over 30 µM.

Take `O=C(NC1CCCC1)c1noc(-c2cnc3c(c2)N(S(=O)(=O)c2ccc(F)cc2)CCO3)n1` [Example 213, N-cyclopentyl-5-(1-(4-fluorophenylsulfonyl)-2,3-dihydro-1H-pyrido[2,3-b][1,4]oxazin-7-yl)-1,2,4-oxadiazole-3-carboxamide]: the “inverse agonist mark, human CB2 receptor” value on human CB2 receptor (setting [2]) is reported as 175, 178, 179, 181, 198, 204, 205, 213*, 214, 215, 216, 219, 220,.

As for `CC1(C)N=C(c2cnc3c(c2)N(S(=O)(=O)c2ccc(C(F)(F)F)cc2)CCO3)NO1` [Example 223, 7-(5,5-dimethyl-2,5-dihydro-1,2,4-oxadiazol-3-yl)-1-(4-(trifluoromethyl)phenylsulfonyl)-2,3-dihydro-1H-pyrido[2,3-b][1,4]oxazine], the 50% effective concentration (EC50) was at most 0.03 µM on rat CB2 receptor and over 30 µM at human CB1 receptor.

For the compound `CC1(C)CN=C(c2cnc3c(c2)N(S(=O)(=O)c2ccc(C(F)(F)F)cc2)CCO3)NC1` [Example 225, 7-(5,5-dimethyl-1,4,5,6-tetrahydropyrimidin-2-yl)-1-(4-(trifluoromethyl)phenylsulfonyl)-2,3-dihydro-1H-pyrido[2,3-b][1,4]oxazine], the EC50 at rat CB2 receptor and at human CB1 receptor was over 30 µM throughout.

For `O=S(=O)(c1ccc(C(F)(F)F)cc1)N1CCOc2ncc(-c3ncc(-c4ccccc4)[nH]3)cc21` [Example 226, 7-(5-phenyl-1H-imidazol-2-yl)-1-(4-(trifluoromethyl)phenylsulfonyl)-2,3-dihydro-1H-pyrido[2,3-b][1,4]oxazine], the EC50 on human CB2 receptor (setting [1]) is over 30 µM.
